Source: ChEMBL document CHEMBL5625197, “The mystery of titan hunter: Rationalized striking of the MAPK pathway via Newly synthesized 6-Indolylpyridone-3-Carbonitrile derivatives” (Eur J Med Chem, 2023)
pIC50: −log10 of the molar value. One block for each molecule: values may come before it.

Key:
SR [1] = assay: cells; assay type: functional; conditions: Homo sapiens, 96 h, time 4 day, read-out: GI
Description: Growth inhibition of human SR cells at 10 uM incubated for 4 days by MTT assay relative to control

HOP-92 [2] = assay: cells; assay type: functional; conditions: Homo sapiens, HOP-92, 96 h, time 4 day, read-out: GI
Description: Growth inhibition of human HOP-92 cells at 10 uM incubated for 4 days by MTT assay relative to control

RXF 393 [3] = assay: cells; assay type: functional; conditions: Homo sapiens, RXF 393, 96 h, time 4 day, read-out: GI
Description: Growth inhibition of human RXF 393 cells at 10 uM incubated for 4 days by MTT assay relative to control

HCT-116 [4] = assay: cells; assay type: functional; conditions: Homo sapiens, HCT-116, 96 h, time 4 day, read-out: GI
Description: Growth inhibition of human HCT-116 cells at 10 uM incubated for 4 days by MTT assay relative to control

SR [5] = assay: Cytotoxicity against human SR cells assessed as cell growth inhibition incubated for 4 days by MTT assay; assay type: functional; conditions: 96 h, time 4 day
[6] = Cytotoxicity against human PCS-800-011 cells assessed as cell growth inhibition incubated for 4 days by MTT assay
HOP-92 [7] = assay: Cytotoxicity against human HOP-92 cells assessed as cell growth inhibition incubated for 4 days by MTT assay; assay type: functional; conditions: HOP-92, 96 h, time 4 day
[8] = Cytotoxicity against human MRC5 cells assessed as cell growth inhibition incubated for 4 days by MTT assay
RXF 393 [9] = assay: Cytotoxicity against human RXF 393 cells assessed as cell growth inhibition incubated for 4 days by MTT assay; assay type: functional; conditions: RXF 393, 96 h, time 4 day
[10] = Cytotoxicity against human HEK293 cells assessed as cell growth inhibition incubated for 4 days by MTT assay
HCT-116 [11] = assay: Cytotoxicity against human HCT-116 cells assessed as cell growth inhibition incubated for 4 days by MTT assay; assay type: functional; conditions: HCT-116, 96 h, time 4 day
[12] = Cytotoxicity against human FHC cells assessed as cell growth inhibition incubated for 4 days by MTT assay
[13] = Selectivity index, ratio of GI50 for cytotoxicity against human PCS-800-011 cells to GI50 for cytotoxicity against human SR cells; assay type: toxicity, cell-based; conditions: PCS-800-011 cells versus SR cells, read-out: RatioGI50
[14] = Selectivity index, ratio of GI50 for cytotoxicity against human MRC5 cells to GI50 for cytotoxicity against human HOP-92 cells
[15] = Selectivity index, ratio of GI50 for cytotoxicity against human HEK293 cells to GI50 for cytotoxicity against human RXF 393 cells
[16] = Selectivity index, ratio of GI50 for cytotoxicity against human FHC cells to GI50 for cytotoxicity against human HCT-116 cells; assay type: toxicity, cell-based; conditions: FHC cells versus HCT-116 cells, read-out: RatioGI50
[17] = target: Epidermal growth factor receptor (Homo sapiens, UniProt P00533); assay: Inhibition of wild type EGFR (unknown origin)
[18] = target: Epidermal growth factor receptor (Homo sapiens, UniProt P00533, T790M); assay: Inhibition of EGFR T790M mutant (unknown origin)
[19] = target: Hepatocyte growth factor receptor (Homo sapiens, UniProt P08581); assay: Inhibition of c-Met (unknown origin)
[20] = target: Serine/threonine-protein kinase B-raf (Homo sapiens, UniProt P15056); assay: Inhibition of wild type B-RAF (unknown origin)
[21] = target: Serine/threonine-protein kinase B-raf (Homo sapiens, UniProt P15056, V600E); assay: Inhibition of B-RAF V600E mutant (unknown origin)
[22] = target: Cyclin-dependent kinase 4 (Homo sapiens, UniProt P11802); assay: Inhibition of CDK4 (unknown origin)
[23] = target: Cyclin-dependent kinase 6 (Homo sapiens, UniProt Q00534); assay: Inhibition of CDK6 (unknown origin)
HOP-92 [24] = assay: Induction of cell cycle arrest in human HOP-92 cells assessed as accumulation of cells at G0/G1 phase (reference value: 54.83 %); assay type: functional
HOP-92 [25] = assay: Induction of cell cycle arrest in human HOP-92 cells assessed as accumulation of cells at S phase (reference value: 29.57 %); assay type: functional
HOP-92 [26] = assay: Induction of cell cycle arrest in human HOP-92 cells assessed as accumulation of cells at G2/M phase (reference value: 15.6 %); assay type: functional
HOP-92 [27] = assay: Induction of cell cycle arrest in human HOP-92 cells assessed as cell aggregation (reference value: 1.77 %); assay type: functional
HOP-92 [28] = assay: Induction of cell cycle arrest in human HOP-92 cells assessed as cell debris (reference value: 2.18 %); assay type: functional
HOP-92 [29] = assay: Induction of apoptosis in human HOP-92 cells assessed as early apoptotic rate by Annexin V/ PI staining based flow cytometry (reference value: 0.42 %); assay type: functional
HOP-92 [30] = assay: Induction of apoptosis in human HOP-92 cells assessed as late apoptotic rate by Annexin V/ PI staining based flow cytometry (reference value: 0.26 %); assay type: functional
HOP-92 [31] = assay: Induction of apoptosis in human HOP-92 cells assessed as total apoptotic rate by Annexin V/ PI staining based flow cytometry (reference value: 2.28 %); assay type: functional
HOP-92 [32] = assay: Induction of apoptosis in human HOP-92 cells assessed as necrosis rate by Annexin V/ PI staining based flow cytometry (reference value: 1.6 %); assay type: functional
HOP-92 [33] = assay: Induction of apoptosis in human HOP-92 cells assessed as fold change in caspase-3 gene expression by RT-PCR analysis; assay type: functional
HOP-92 [34] = assay: Induction of apoptosis in human HOP-92 cells assessed as fold change in caspase-8 gene expression by RT-PCR analysis; assay type: functional
HOP-92 [35] = assay: Induction of apoptosis in human HOP-92 cells assessed as fold change in caspase-9 gene expression by RT-PCR analysis; assay type: functional
HOP-92 [36] = assay: Induction of apoptosis in human HOP-92 cells assessed as fold change in p53 gene expression by RT-PCR analysis; assay type: functional
HOP-92 [37] = assay: Induction of apoptosis in human HOP-92 cells assessed as fold change in Bax gene expression by RT-PCR analysis; assay type: functional
HOP-92 [38] = assay: Induction of apoptosis in human HOP-92 cells assessed as fold change in ratio of Bax/Bcl-2 gene expression by RT-PCR analysis; assay type: functional
HOP-92 [39] = assay: Induction of apoptosis in human HOP-92 cells assessed as fold change in Bcl-2 gene expression by RT-PCR analysis; assay type: functional
HOP-92 [40] = assay: Induction of apoptosis in human HOP-92 cells assessed as fold change in PARP1 gene expression by RT-PCR analysis; assay type: functional
HOP-92 [41] = assay: Induction of apoptosis in human HOP-92 cells assessed as fold change in TNFR1 gene expression by RT-PCR analysis; assay type: functional
HOP-92 [42] = assay: Induction of apoptosis in human HOP-92 cells assessed as PARP1 gene expression level by RT-PCR analysis relative to control; assay type: functional
HOP-92 [43] = assay: Inhibition of cell migration in human HOP-92 cells incubated for 15 to 20 mins by crystal violet staining based trans-well assay relative to control; assay type: functional; conditions: time 15-20 min
HOP-92 [44] = assay: Inhibition of cell invasion in human HOP-92 cells incubated for 15 to 20 mins by crystal violet staining based trans-well assay relative to control; assay type: functional; conditions: time 15-20 min
[45] = Cytotoxicity against human PCS-800-011 cells assessed as fold change in cell growth inhibition incubated for 4 days by MTT assay; assay type: toxicity, cell-based; conditions: pcs-800-011, 96 h, time 4 day
HOP-92 [46] = assay: Inhibition of cell migration in human HOP-92 cells assessed as fold decrease in cell count incubated for 15 to 20 mins by crystal violet staining based trans-well assay; assay type: functional; conditions: time 15-20 min
HOP-92 [47] = assay: Inhibition of colony formation in human HOP-92 cells incubated for 24 hrs by crystal violet staining based assay relative to control; assay type: functional

Structure (SMILES): N#Cc1c(-c2ccccc2Cl)cc(-c2c[nH]c3ccccc23)[nH]c1=O
- inhibition of growth at 10 µM (SR [1]): 90%
- inhibition of growth at 10 µM (HOP-92 [2]): 55.1%
- inhibition of growth at 10 µM (RXF 393 [3]): 51.3%
- inhibition of growth at 10 µM (HCT-116 [4]): 47.6%

- pIC50 [17]: 6.55
- pIC50 [18]: 7.16
- pIC50 [19]: 6.69
- pIC50 [20]: 6.95
- pIC50 [21]: 7.08
- pIC50 [22]: 7.02
- pIC50 [23]: 6.74
Structure (SMILES): N#Cc1c(-c2ccc(Cl)cc2Cl)cc(-c2c[nH]c3ccccc23)[nH]c1=O
- inhibition of growth at 10 µM (SR [1]): 74.7%
- inhibition of growth at 10 µM (HOP-92 [2]): 79.8%
- inhibition of growth at 10 µM (RXF 393 [3]): 58.4%
- inhibition of growth at 10 µM (HCT-116 [4]): 82.8%
- GI50 (SR [5]): 2770 nM
- GI50 at 96 h [6]: 49700 nM
- GI50 (HOP-92 [7]): 750 nM
- GI50 at 96 h [8]: 28500 nM
- GI50 (RXF 393 [9]): 3120 nM
- GI50 at 96 h [10]: 22400 nM
- GI50 (HCT-116 [11]): 2530 nM
- GI50 at 96 h [12]: 26800 nM
- selectivity ratio [13]: 18
- RatioGI50 [14]: 37.87
- RatioGI50 [15]: 7.18
- selectivity ratio [16]: 10.6
- Activity (HOP-92 [24]): 59.18%
- Activity (HOP-92 [25]): 34.11%
- Activity (HOP-92 [26]): 6.71%
- Activity (HOP-92 [27]): 1.88%
- Activity (HOP-92 [28]): 2.12%
- Activity (HOP-92 [29]): 24.18%
- Activity (HOP-92 [30]): 14.91%
- Activity (HOP-92 [31]): 46.71%
- Activity (HOP-92 [32]): 7.62%
- fold change (FC) (HOP-92 [33]): 7.93
- fold change (FC) (HOP-92 [34]): 2.99
- fold change (FC) (HOP-92 [35]): 6.75
- fold change (FC) (HOP-92 [36]): 5.97
- fold change (FC) (HOP-92 [37]): 5.49
- fold change (FC) (HOP-92 [38]): 30.5
- fold change (FC) (HOP-92 [39]): 0.18
- fold change (FC) (HOP-92 [40]): 0.23
- fold change (FC) (HOP-92 [41]): 0.27
- Activity (HOP-92 [42]): 20%
- inhibition (INH) (HOP-92 [43]): 61.59%
- inhibition (INH) (HOP-92 [44]): 49.99%
- fold change (FC) [45]: 2.3
- fold change (FC) (HOP-92 [46]): 2.6
- inhibition (INH) (HOP-92 [47]): 61.6%

Structure (SMILES): N#Cc1c(-c2ccc(O)c(O)c2)cc(-c2c[nH]c3ccccc23)[nH]c1=O
- inhibition of growth at 10 µM (SR [1]): 69.8%
- inhibition of growth at 10 µM (HOP-92 [2]): 31.2%
- inhibition of growth at 10 µM (RXF 393 [3]): 11%
- inhibition of growth at 10 µM (HCT-116 [4]): 9.54%

Structure (SMILES): COc1cccc2c1C(=O)c1c(O)c3c(c(O)c1C2=O)C[C@@](O)(C(=O)CO)C[C@@H]3O[C@H]1C[C@H](N)[C@H](O)[C@H](C)O1 [DOXORUBICIN]
- Activity (HOP-92 [24]): 48.53%
- Activity (HOP-92 [25]): 21.73%
- Activity (HOP-92 [26]): 29.74%
- Activity (HOP-92 [27]): 2.15%
- Activity (HOP-92 [28]): 2.44%
- Activity (HOP-92 [29]): 16.64%
- Activity (HOP-92 [30]): 26.57%
- Activity (HOP-92 [31]): 52.49%
- Activity (HOP-92 [32]): 9.28%
- fold change (FC) (HOP-92 [33]): 14.3
- fold change (FC) (HOP-92 [34]): 4.36
- fold change (FC) (HOP-92 [35]): 12.4
- fold change (FC) (HOP-92 [36]): 6.97
- fold change (FC) (HOP-92 [37]): 6.62
- fold change (FC) (HOP-92 [38]): 21.4
- fold change (FC) (HOP-92 [39]): 0.31
- fold change (FC) (HOP-92 [40]): 0.23
- fold change (FC) (HOP-92 [41]): 0.24
- inhibition (INH) (HOP-92 [43]): 73.54%
- inhibition (INH) (HOP-92 [44]): 41.96%
- fold change (FC) (HOP-92 [46]): 3.8
- inhibition (INH) (HOP-92 [47]): 44.9%

Structure (SMILES): N#Cc1c(-c2ccccc2[N+](=O)[O-])cc(-c2c[nH]c3ccccc23)[nH]c1=O
- inhibition of growth at 10 µM (SR [1]): 69%
- inhibition of growth at 10 µM (HOP-92 [2]): 68.5%
- inhibition of growth at 10 µM (RXF 393 [3]): 64.8%
- inhibition of growth at 10 µM (HCT-116 [4]): 59.5%

Structure (SMILES): N#Cc1c(-c2ccc(F)c(F)c2)cc(-c2c[nH]c3ccccc23)[nH]c1=O
- inhibition of growth at 10 µM (SR [1]): 55.9%
- inhibition of growth at 10 µM (HOP-92 [2]): 53.1%
- inhibition of growth at 10 µM (RXF 393 [3]): 65.7%
- inhibition of growth at 10 µM (HCT-116 [4]): 51%

Structure (SMILES): N#Cc1c(-c2cccc(Cl)c2)cc(-c2c[nH]c3ccccc23)[nH]c1=O
- inhibition of growth at 10 µM (SR [1]): 71.9%
- inhibition of growth at 10 µM (HOP-92 [2]): 38.6%
- inhibition of growth at 10 µM (RXF 393 [3]): 67.5%
- inhibition of growth at 10 µM (HCT-116 [4]): 51.1%

Structure (SMILES): CN[C@@H]1C[C@H]2O[C@@](C)([C@@H]1OC)n1c3ccccc3c3c4c(c5c6ccccc6n2c5c31)C(=O)NC4 [STAUROSPORINE]
- GI50 (RXF 393 [9]): 950 nM
